US9157077B2, “Aminopyrimidine kinase inhibitors” (Jasco Pharmaceuticals, LLC, priority 2009, dated 2015)
Like-named read-outs stand apart in the source and are kept apart here.

Test system: cell lines
Test: Selected cell proliferation inhibition data: cytotoxicity and IC50 determination (MTS/PMS, 72 hours), Tables 27 and 28
Assay type: cell-based
Conditions: Homo sapiens; for inhibition at 30 µM: 30 μM compound; for IC50: 72 hours, MTS
Description: Selected Cell Proliferation Inhibition Data
All cells were cultured in media supplemented with 10% FBS except for which are marked specially, in the temperature of 37° C., 5% CO2 and 95% humidity. All culture media were purchased from GIBCO (USA, IMDM Cat. 12200-036; RPMI Medium 1640 Cat. 31800-022; 2-mercaptoethanol Cat. 21985-023).
• CellTiter 96® AQueous MTS reagent powder (Cat. No.: G11 12, Promega. Store MTS Reagent Powder desiccated at 4° C. protected from light.) • Phenazine methosulfate (PMS) (Product No.: P9625, SIGMA. Store PMS Powder desiccated at 4° C. protected from light.) Preparation of PMS Solution:
The following protocol is recommended for the preparation of 21 mL of MTS solution (sufficient for ten 96-well plates). • a. Select a light-protected container or wrap a container with foil. • b. Add 21 mL of DPBS to the container. • c. Weigh out 42 mg of MTS Reagent Powder and add to DPBS. • d. Mix at moderate speed on a magnetic stir plate for 15 minutes or until the MTS is completely dissolved. • e. Measure the pH of the MTS solution. The optimum pH is between pH 6.0 to 6.5. If the solution is above pH 6.5, adjust to pH 6.5 with 1N HC1. • f. Filter-sterilize the MTS solution through a 0.2 μm filter into a sterile, light protected container. • g. Store the MTS solution at −20° C., protected from light. Preparation of the Mixture of MTS/PMS: • a. In order to prepare reagents sufficient for one 96-well plate containing cells cultured in a 100 μL volume, thaw the MTS solution and the PMS solution. It should take approximately 90 minutes at room temperature or 10 minutes in a 37° C. water bath to completely thaw the 20 mL size of MTS solution. […] Remove 2.0 mL of MTS solution from the amber reagent bottle using aseptic technique and transfer to a test tube. • c. Add 100 μL of PMS solution to the 2.0 mL of MTS solution immediately before addition to the culture plate containing cells. • d. Gently swirl the tube to ensure complete mixing of the combined MTS/PMS solution. Equipment:
• 1. The cells were harvested respectively during the logarithmic growth period and counted with hemocytometer. The cell viability was over 98% by trypan blue exclusion. • 2. Cell concentrations were adjusted to 2.22×10^5 or 1.11×10^5 or 5.56×10^4 cells/mL with respective medium. • 3. 90 μL cell suspensions were added to 96-well plates (triplicates for each cell concentration), the final cell densities were 2×10^4 or 1×10^4 or 5×10^3 cells/well. The density of 5×10^3 cells/well was used for the first test. The appropriate cell density was determined and adjusted according to the results of the first test. • 4. The next day, test article or positive drugs were dissolved with DMSO as stock solution at the concentration of 20 mM. • 5. 10 μL drug solution was dispensed in each well (triplicate for each drug concentration). • 6. Plates were cultured for another 72 hours, then measured by means of MTS assay. • 7. MTS/PMS solution was prepared immediately prior to use. 20 μL of the mixture was introduced into each well of the 96-well assay plate containing 100 μL culture medium. (The final reaction volume was 120 μL). • 8. Plate was incubated for 1-4 hours at 37° C. in a humidified 5% CO2 atmosphere. • 9. Absorbance at 490 nm was recorded using SpectraMAX Plus microplate spectrophotometer. Data Analysis:
The software of GraphPad Prism version 5 was used to calculate IC50. The graphical curves were fitted using a nonlinear regression model with a sigmoidal dose.

[1] = MV4-11 cell line, read-out: Percent inhibition at 30 μM of Compound, MV4-11
[2] = MV4-11 cell line, read-out: IC50 values, MV4-11
[3] = NCI-H929 cell line, read-out: Percent inhibition at 30 μM of Compound, NCI-H929
[4] = NCI-H929 cell line, read-out: IC50 values, NCI-H929
[5] = RPMI 8226 cell line, read-out: Percent inhibition at 30 μM of Compound, RPMI 8226
[6] = RPMI 8226 cell line, read-out: IC50 values, RPMI 8226

Row | SMILES | inhibition at 30 µM [1] [%] | IC50 [2] [µM] | inhibition at 30 µM [3] [%] | IC50 [4] [µM] | inhibition at 30 µM [5] [%] | IC50 [6] [µM]
1 | O=C1NC(=O)/C(=C/c2ccnc(N3CCC(CNCc4ccc5ccccc5n4)CC3)n2)S1 [Example 180, (Z)-5-((2-(4-(((quinolin-2-ylmethyl)amino)methyl)piperidin-1-yl)pyrimidin-4-yl)methylene)thiazolidine-2,4-dione] | 90.7 | 11 | 100 | 10.9 | 79.7 | 9.13
2 | COc1cccc(CNCC2CCN(c3nccc(/C=C4\SC(=O)NC4=O)n3)CC2)n1 [Example 183, (Z)-5-((2-(4-((((6-methoxypyridin-2-yl)methyl)amino)methyl)piperidin-1-yl)pyrimidin-4-yl)methylene)thiazolidine-2,4-dione] | 94.4 | – | 98.6 | 4.6 | 82.3 | 9.6
3 | Cc1ccc(N2CCN(c3nccc(/C=C4\SC(=O)NC4=O)n3)CC2)cc1 [Example 9, (Z)-5-((2-(4-(p-tolyl)piperazin-1-yl)pyrimidin-4-yl)methylene)thiazolidine-2,4-dione] | 91.1 | 6.78 | 91.4 | 11.5 | 71.2 | 16.1
4 | O=C1NC(=O)/C(=C/c2ccnc(N3CCCC4NCCCC43)n2)S1 (stereo not shown) [Example 155, (Z)-5-((2-(octahydro-1,5-naphthyridin-1(2H)-yl)pyrimidin-4-yl)methylene)thiazolidine-2,4-dione] | 97.6 | 12.5 | 73.7 | 3.96 | 53.9 | –
5 | Nc1cccc2c1CCN(c1nccc(/C=C3\SC(=O)NC3=O)n1)C2 [Example 120, (Z)-5-((2-(5-amino-3,4-dihydroisoquinolin-2(1H)-yl)pyrimidin-4-yl)methylene)thiazolidine-2,4-dione] | 95.1 | 4.05 | 89.8 | 2.81 | 76.4 | 1.54
6 | O=C1NC(=O)/C(=C/c2ccnc(N3CCC(CNCc4nccc5ccccc45)CC3)n2)S1 [Example 182, (Z)-5-((2-(4-(((isoquinolin-1-ylmethyl)amino)methyl)piperidin-1-yl)pyrimidin-4-yl)methylene)thiazolidine-2,4-dione] | 91.1 | 2.02 | 96.5 | 7.08 | 90.2 | 11.9
7 | COc1cccc2ccc(CNCC3CCN(c4nccc(/C=C5\SC(=O)NC5=O)n4)CC3)nc12 [Example 189, (Z)-5-((2-(4-((((8-methoxyquinolin-2-yl)methyl)amino)methyl)piperidin-1-yl)pyrimidin-4-yl)methylene)thiazolidine-2,4-dione] | 97.9 | 4.71 | 98.5 | 3.04 | 99.9 | 8.32
8 | Cc1cc(CNCC2CCN(c3nccc(/C=C4\SC(=O)NC4=O)n3)CC2)c2ccccc2n1 [Example 181, (Z)-5-((2-(4-((((2-methylquinolin-4-yl)methyl)amino)methyl)piperidin-1-yl)pyrimidin-4-yl)methylene)thiazolidine-2,4-dione] | 96.6 | 1.2 | 93.5 | 4.42 | 82.2 | 3.41
9 | O=C1NC(=O)/C(=C/c2ccnc(N3CCC(CNCc4ccc5cc(F)ccc5n4)CC3)n2)S1 [Example 191, (Z)-5-((2-(4-((((6-fluoroquinolin-2-yl)methyl)amino)methyl)piperidin-1-yl)pyrimidin-4-yl)methylene)thiazolidine-2,4-dione] | 87.4 | 2.4 | 94 | 3.26 | 93.1 | 6.86
